{
  "source": "patent US20100204097A1",
  "about": "“THERAPEUTIC METHODS USING A THYMUS PEPTIDE” (IMMUNE SYSTEM KEY LTD., priority 2006, published 2010)",
  "key": {"[1]": {"system": "human breast cancer cells", "assay": "Induction of apoptosis in human breast cancer cells", "assay_type": "cell-based", "settings": "not shown", "description": "(§1) It may be seen in FIG. 9 that in untreated cells (time 0), a significant level of FLIP but very little caspase 8 are observed. […] It is seen that the changes in FLIP and caspase 8 are time-sensitive, with the greatest changes seen at the short time points (10′), after which their levels gradually return to baseline. Similar results were obtained with other cell lines as well."}, "[2]": {"system": "murine spleenocytes", "assay": "Activated caspase 3 in spleenocytes of mice injected ip with LPS and/or T101", "assay_type": "in vivo", "settings": "Balb/c mice", "description": "Four groups of 3 mice each (male Balb/c, 6 wks old, approx. 20 gr.) were injected ip with the following: A—saline (control); B—50 μg LPS (induces activation of monocytes); C —50 μg LPS+1 μg T101; D—1 μg T101. After 24 hours the mice were sacrificed and the spleens were removed. The spleens of the mice of each group were combined and lysed in RIPA buffer in the presence of protease inhibitors, and 30×10^6 lysed spleenocytes from each group were run on SDS-PAGE. A Western blot of the gel was performed with antibody against activated caspase 3."}, "[3]": {"system": "mouse N2A neublastoma cells", "assay": "Induction of apoptosis in mouse N2A neublastoma cells", "assay_type": "cell-based", "settings": "not shown", "description": "as §1"}, "[4]": {"system": "human glioblastoma cells", "assay": "Induction of apoptosis in human glioblastoma cells", "assay_type": "cell-based", "settings": "not shown", "description": "as §1"}, "[5]": {"system": "U937 cells", "assay": "Western blot for the 85 kDa cleavage product of PARP in U937 cells", "assay_type": "cell-based, human", "description": "U937 cells were treated as in FIG. 1 and loaded on SDS-PAGE, except that the gel was treated with antibody against the 85 kDa cleavage product of PARP, which is produced by the cleavage of PARP by caspase 3, and is active in apoptosis.\nThe lanes of the gel were loaded with lysed cells which had been incubated with the following concentrations of T101: A —100 ng/ml; B —10 ng/ml; C —1 ng/ml; D —100 pg/ml; E —10 pg/ml; F —0 pg/ml (control). The bands show the location of the 85 kDa cleavage product of PARP.\nU937 cells were treated as in FIG. 2 except that some of the cells were not treated with FCS, i.e. not activated. The lysed cells were loaded on SDS-PAGE, which was treated with antibody against the 85 kDa cleavage product of PARP.\nThe lanes of the gel were loaded with lysed cells, as follows: A—activated cells+0 ng/ml T101 (control) [the result with nonactivated cells was similar]; B—nonactivated cells+100 ng/ml T101; C—activated cells+100 ng/ml T101."}, "[6]": {"system": "murine spleenocytes", "assay": "Activated caspase 6 in spleenocytes of mice injected ip with LPS and/or T101", "assay_type": "in vivo", "settings": "Balb/c mice"}, "[7]": {"system": "U937 cells", "assay": "Western blot for activated caspase 3 in FCS-activated U937 cells", "assay_type": "cell-based, human", "settings": "U937 cells activated with 10% FCS, 18 hr, 10 pg/ml to 100 ng/ml T101", "description": "10^6 U937 cells, a human leukemic monoblast cell line, were incubated for 18 hr at 37° C. in RPMI buffer+10% fetal calf serum (FCS) with different concentrations of T101. The FCS causes activation of the U937 cells. The cells were then lysed in RIPA buffer in the presence of protease inhibitors, and run on SDS-PAGE. A Western blot of the gel was performed with anti-caspase 3 antibody.\nThe lanes of the gel were loaded with lysed cells which had been incubated with the following concentrations of T101: A,B—0 pg/ml (control); C—10 pg/ml; D—100 pg/ml; E—1 ng/ml; F—10 ng/ml; G—100 ng/ml.\nThus, T101 can be expected to cause apoptosis in activated monocytes, thereby reducing the possibility of development of a disease associated with activated monocytes, such as atherosclerosis."}, "[8]": {"system": "human lung carcinoma cells", "assay": "Induction of apoptosis in human lung carcinoma cells", "assay_type": "cell-based", "settings": "not shown", "description": "as §1"}, "[9]": {"system": "U937 cells", "assay": "Western blot for Bcl-2 and full length caspase 9 in U937 cells", "assay_type": "cell-based, human", "description": "(§2) In FIG. 10, it can be seen that T101 causes an increase in both JNK and MAPK phosphorylation 30 min after T101 application, while no change in the IκB protein level was detected. No change of IκB levels was detected at shorter time points as well. Therefore, it is assumed that the JNK pathway and MAP kinase pathway are activated by T101, while NF-κB remains unactivated. However, not only the caspase 8 pathway is activated upon T1/ST2 activation by T101, but also the caspase 9 dependent cascade is stimulated."}, "[10]": {"system": "U937 cells", "assay": "Time course of FLIP and caspase 8 in T1/ST2 immuno-precipitated from U937 cells", "assay_type": "cell-based, human", "description": "The samples were obtained from T1/ST2 immuno-precipitated from U937 cells at different time points after incubation with T101. The antibodies used to detect caspase 8 were against the active cleaved species;\nIn this example, the time course of the effect of T101 on T1/ST2 receptor-related apoptosis was investigated by following the degradation of FLIP and activation of caspase 8. U937 cells were incubated with T101, and at different time points T1/ST2 was immuno-precipitated from the cells and analyzed by Western blot for the presence of caspase 8 and FLIP."}, "[11]": {"system": "murine mammary gland carcinoma cells", "assay": "Induction of apoptosis in murine mammary gland carcinoma cells", "assay_type": "cell-based", "settings": "not shown", "description": "as §1"}, "[12]": {"system": "mouse spleenocytes", "assay": "Expression of VEGFA, VEGFR1 and IL-10 in mouse spleenocytes", "assay_type": "cell-based", "settings": "increasing concentrations of T101", "description": "HPRT was included as a negative control.\nMouse spleenocytes were challenged without or with increasing concentrations of T101. VEGFA, VEGFR1 and IL-10 expression were compared. VEGFA is a major proangiogenic cytokine, and VEGFR1 is a receptor for VEGFA. HPRT was included as a negative control."}, "[13]": {"assay": "Blood cholesterol level in mice after 3 weeks of treatment", "assay_type": "in vivo", "settings": "female Balb/C mice, 50 μg/Kg twice a day for 3 weeks, pooled blood, versus saline", "description": "(§3) Two groups of 7 weeks old female Balb/C mice were injected twice a day for 3 weeks with either T101 (50 μg/Kg) (8 mice), or with saline (control) (7 mice). After 3 weeks, blood was collected from the mice and pooled, and the cholesterol level (mg/DL) was measured."}, "[14]": {"system": "U937 cells", "assay": "Western blot for phosphorylated JNK, phosphorylated MAPK p38 and IκB in U937 cells", "assay_type": "cell-based, human", "description": "The U937 cells were incubated for 30 min. with (+) or without (−) T101;\nIn order to determine the effect of T101 on various apoptotic signaling pathways, JNK and MAP kinase phosphorylation were measured.\nas §2"}, "[15]": {"system": "T1/ST2 receptor", "assay": "Streptavidin bead pull-down of FC-T1/ST2 by biotin-labeled T101, Western blot", "assay_type": "binding", "settings": "T101-bio pre-incubated with FC-T1/ST2 45 min at 4° C., Streptavidin beads", "description": "An antibody to the T1/ST2 receptor (FC-T1/ST2), and T101 labeled with biotin (T101-bio) were prepared. Streptavidin beads were incubated for 1 hr. at 4° C. with each of the following: A —T101-bio alone; B—Fc-T1/ST2 alone; C—FC-T1/ST2 pre-incubated with T101-bio for 45 min. at 4° C. After incubation, the beads were spun down and washed 3 times with PBS+0.1% Tween 20. The beads were then loaded on SDS-PAGE and a Western blot was performed using antibody against T1/ST2."}, "[16]": {"assay": "Blood liver enzyme levels (AST, ALP, ALT) in mice after 3 weeks of treatment", "assay_type": "in vivo", "settings": "female Balb/C mice, 50 μg/Kg twice a day for 3 weeks, versus saline", "description": "as §3\nLiver enzymes levels (μg/L) were measured in the blood of the mice of Example 7. The enzymes measured were aspartate aminotransferase (AST), alkaline phosphatase (ALP) and alanine aminotransferase (ALT)."}, "[17]": {"settings": "1 μg T101 without LPS, 24 hours"}, "[18]": {"settings": "T1/ST2 immuno-precipitate from U937 cells, greatest change at 10′"}},
  "data": [
    {"substance": "T101: human thymus peptide, 51 amino acids: LHLWLSGEPVQSSGTKDMRSKSDSKRVSDKQLISKAVWWTFFLPSTLWERK (listed as Homo sapiens)", "values": [
      {"measurement": "induction of apoptosis", "setting": "[1]", "result": "able to induce apoptosis"},
      {"measurement": "activated caspase 3 in spleenocytes", "setting": "[2]; [17]", "result": "inhibition of activated caspase 3"},
      {"measurement": "activated caspase 3 in spleenocytes", "setting": "[2]; 50 μg LPS+1 μg T101, 24 hours, versus control", "result": "increased amount of activated caspase 3"},
      {"measurement": "induction of apoptosis", "setting": "[3]", "result": "able to induce apoptosis"},
      {"measurement": "induction of apoptosis", "setting": "[4]", "result": "able to induce apoptosis"},
      {"measurement": "cleavage of PARP, activated versus nonactivated monocytes", "setting": "[5]; U937 cells with or without FCS, 100 ng/ml T101", "result": "induced the cleavage of PARP only in the activated monocytes"},
      {"measurement": "amount of the 85 kDa cleavage product of PARP", "setting": "[5]; activated U937 cells, 10 pg/ml T101", "result": "significantly increased"},
      {"measurement": "caspase 6 in nonactivated spleenocytes", "setting": "[6]; [17]", "result": "inhibiting caspase 6"},
      {"measurement": "caspase 6 in activated spleenocytes", "setting": "[6]; 50 μg LPS+1 μg T101, 24 hours", "result": "induces caspase 6"},
      {"measurement": "activated caspase 3 (Western blot)", "setting": "[7]", "result": "increased activated caspase 3"},
      {"measurement": "induction of apoptosis", "setting": "[8]", "result": "able to induce apoptosis"},
      {"measurement": "Bcl-2 protein", "setting": "[9]", "result": "very pronounced degradation"},
      {"measurement": "full-length caspase 9 protein", "setting": "[9]", "result": "cleavage of the full-length caspase 9 protein"},
      {"measurement": "active caspase 8", "setting": "[10]; [18]", "result": "concomitant increase of active caspase 8"},
      {"measurement": "level of FLIP", "setting": "[10]; [18]", "result": "level of FLIP decreases"},
      {"measurement": "inactive caspase 8", "setting": "[10]; U937 cells, not shown", "result": "decrease of the inactive caspase 8"},
      {"measurement": "induction of apoptosis", "setting": "[11]", "result": "able to induce apoptosis"},
      {"measurement": "expression of IL-10", "setting": "[12]", "result": "enhanced"},
      {"measurement": "expression of VEGFA", "setting": "[12]", "result": "inhibits the expression"},
      {"measurement": "expression of VEGFR1", "setting": "[12]", "result": "inhibits the expression"},
      {"measurement": "cholesterol level in the blood", "setting": "[13]", "result": "significant decrease"},
      {"measurement": "JNK phosphorylation", "setting": "[14]; 30 min after T101 application", "result": "increase"},
      {"measurement": "MAPK phosphorylation", "setting": "[14]; 30 min after T101 application", "result": "increase"},
      {"measurement": "IκB protein level", "setting": "[14]; 30 min and shorter time points", "result": "no change"},
      {"measurement": "binding to the T1/ST2 receptor", "setting": "[15]", "result": "binds to the T1/ST2 receptor"},
      {"measurement": "liver enzyme levels in the blood (AST, ALP, ALT)", "setting": "[16]", "result": "significant decrease"}
    ]}
  ]
}
